# Biological target: T1, HPK1 kinase (aa1-346, Life Technologies) (Homo sapiens, UniProt Q92918)
# T1 construct: HPK1 kinase (aa1-346, Life Technologies); purchased Life Technologies
# T1 sequence (Q92918 1-346): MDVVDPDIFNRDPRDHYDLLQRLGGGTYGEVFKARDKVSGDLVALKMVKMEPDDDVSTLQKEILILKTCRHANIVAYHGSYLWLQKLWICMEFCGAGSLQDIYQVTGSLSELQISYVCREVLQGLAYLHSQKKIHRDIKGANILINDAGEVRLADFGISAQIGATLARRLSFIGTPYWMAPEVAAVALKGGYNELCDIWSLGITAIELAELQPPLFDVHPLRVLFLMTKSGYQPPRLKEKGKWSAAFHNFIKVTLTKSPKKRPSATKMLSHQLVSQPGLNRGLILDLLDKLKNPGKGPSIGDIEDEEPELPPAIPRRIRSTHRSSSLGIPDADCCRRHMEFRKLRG
# Experiment: HPK Kinase Activity Assay at 1 mM ATP (TR-FRET)
# Format: biochemical
# Conditions: HPK1 kinase 40 nM, 0.5 μM STK1 substrate, read-out: Enzymatic activity IC50
# Experimental: HPK Kinase Activity Assay at 1 mM ATP
# Compounds disclosed herein were tested for inhibition of HPK1 kinase (aa1-346, Life Technologies) activity in assays based on the time-resolved fluorescence-resonance energy transfer (TR-FRET) methodology. The assays were carried out in 384-well low volume black plates in a reaction mixture containing HPK1 kinase (40 nM), 1 mM ATP, 0.5 μM STK1 substrate and 0-10 μM compound in buffer containing 50 mM HEPES, 0.01% BSA, 0.1 mM Orthovanadate, 10 mM MgCl2, 1 mM DTT, pH=7.0, 0.005% Tween-20. The kinase was incubated with the compounds disclosed herein or DMSO for 60 minutes at room temperature and the reaction was initiated by the addition of ATP and STK1 substrate. After reaction at room temperature for 120 minutes, an equal volume of stop/detection solution was added according to the manufacture's instruction (CisBio). The stop/detection solution contained STK Antibody-Cryptate and XL665-conjugated streptavidin in Detection Buffer. The TR-FRET signals (ratio of fluorescence emission at 665 nm over emission at 620 nm with excitation at 337 nm wavelength) were recorded on a PHERAstar FS plate reader (BMG Labtech). Phosphorylation of STK1 substrate led to the binding of STK Antibody-Cryptate to the biotinylated STK1 substrate, which places fluorescent donor (Eu^3+ crypate) in close proximity to the accepter (Streptavidin-XL665), thus resulting in a high degree of fluorescence resonance energy transfer. The inhibition of HPK1 in presence of increasing concentrations of compounds was calculated based on the ratio of fluorescence at 665 nm to that at 620 nm. The IC50 for each compound was derived from fitting the data to the four-parameter logistic equation by Graphpad Prism software.
row,Compound,IC50 [nM]
1,"Cc1cc(-c2c[nH]c3ncc(-c4cc(C)c5c(c4)CC[C@@H]4CN(C)CCN54)nc23)ccc1C(=O)N(C)C[C@@H]1CCOC1 [Example 11A, 4-(2-((R)-3,10-dimethyl-2,3,4,4a,5,6-hexahydro-1H-pyrazino[1,2-a]quinolin-8-yl)-5H-pyrrolo[2,3-b]pyrazin-7-yl)-N,2-dimethyl-N—(((S)-tetrahydrofuran-3-yl)methyl)benzamide]",52
2,"Cc1cc(-c2cnc3[nH]cc(-c4ccc(C(=O)N(C)CC(C)(C)O)cc4)c3n2)cc2c1N1CCN(C)C[C@H]1CC2 [Example 12A, (R)-4-(2-(3,10-dimethyl-2,3,4,4a,5,6-hexahydro-1H-pyrazino[1,2-a]quinolin-8-yl)-5H-pyrrolo[2,3-b]pyrazin-7-yl)-N-(2-hydroxy-2-methylpropyl)-N-methylbenzamide]",52
3,"Cc1cc(-c2cnc3[nH]cc(-c4ccc(C(=O)N(C)CC(C)(C)O)cc4)c3n2)cc2c1N1CCN(C)C[C@@H]1CC2 [Example 12B, (S)-4-(2-(3,10-dimethyl-2,3,4,4a,5,6-hexahydro-1H-pyrazino[1,2-a]quinolin-8-yl)-5H-pyrrolo[2,3-b]pyrazin-7-yl)-N-(2-hydroxy-2-methylpropyl)-N-methylbenzamide]",52
4,"Cc1cc(-c2c[nH]c3ncc(-c4cc(C)c5c(c4)CC[C@@H]4CN(C)CCN54)nc23)ccc1C(=O)N(C)CC(C)(C)O [Example 13A, (R)-4-(2-(3,10-dimethyl-2,3,4,4a,5,6-hexahydro-1H-pyrazino[1,2-a]quinolin-8-yl)-5H-pyrrolo[2,3-b]pyrazin-7-yl)-N-(2-hydroxy-2-methylpropyl)-N,2-dimethylbenzamide]",101
5,"Cc1cc(-c2c[nH]c3ncc(-c4cc(C)c5c(c4)CC[C@H]4CN(C)CCN54)nc23)ccc1C(=O)N(C)CC(C)(C)O [Example 13B, (S)-4-(2-(3,10-dimethyl-2,3,4,4a,5,6-hexahydro-1H-pyrazino[1,2-a]quinolin-8-yl)-5H-pyrrolo[2,3-b]pyrazin-7-yl)-N-(2-hydroxy-2-methylpropyl)-N,2-dimethylbenzamide]",96

# The next lines start with the values.
row,IC50 [nM],Compound
1,17,"Cc1cc(-c2cnc3[nH]cc(-c4ccc(C(=O)N(C)C[C@@H]5CCOC5)cc4)c3n2)cc2c1N1CCN(C)C[C@@H]1CC2 [Example 10B, 4-(2-((S)-3,10-dimethyl-2,3,4,4a,5,6-hexahydro-1H-pyrazino[1,2-a]quinolin-8-yl)-5H-pyrrolo[2,3-b]pyrazin-7-yl)-N-methvl-N—(((S)-tetrahydrofuran-3-yl)methyl)benzamide]"
2,53,"Cc1cc(-c2c[nH]c3ncc(-c4cc(C)c5c(c4)CC[C@H]4CN(C)CCN54)nc23)ccc1C(=O)N(C)C[C@@H]1CCOC1 [Example 11B, 4-(2-((S)-3,10-dimethyl-2,3,4,4a,5,6-hexahydro-1H-pyrazino[1,2-a]quinolin-8-yl)-5H-pyrrolo[2,3-b]pyrazin-7-yl)-N,2-dimethyl-N—(((S)-tetrahydrofuran-3-yl)methyl)benzamide]"

# Reference: US12459958B2, “Tricyclic compounds as HPK1 inhibitor and the use thereof” (BEIGENE, LTD., priority 2019, dated 2025)
